Test results taken from patent US20240295566A1, “METHOD FOR DIAGNOSING AND TREATING METABOLIC DISORDERS” (Centre for Chinese Herbal Medicine Drug Development Limited, priority 2023, published 2024).

Legend:
[1] = Oral glucose tolerance test (OGTT) in mice; format: in vivo, mouse; settings: for glucose tolerance in control mice (OGTT): control mice without tryptamine, inhibitor alone; for tryptamine-induced glucose intolerance (OGTT): tryptamine (10 mg/kg)-treated mice plus inhibitor i.p. (U0126 20 mg/kg, PD98059 10 mg/kg, EPPTB 10 mg/kg); for glucose tolerance (OGTT): normal mice, substance given alone (tryptamine 0.4, 2, 10 mg/kg; phenethylamine 1, 2, 5 mg/kg i.p.)
Protocol: (§1) For the oral glucose tolerance test (OGTT), mice were fasted for 12 hours (overnight) and administered with tryptamine, ERK inhibitors, TAAR1 antagonist or IAA at indicated dosages. After 30 min, mice were given glucose at a dosage of 2 g/kg. Blood samples were collected from the tail vein for glucose measurement using Accu-Chek glucose meters at 0, 15, 30, 60, 90 and 120 min after the glucose challenge. For the insulin tolerance test (ITT), mice were fasted for 4 hours and administered with tryptamine, ERK inhibitors or a TAAR1 antagonist at indicated dosages. After 30 min, insulin (1 U/kg) was injected intraperitoneally into the mice. Blood glucose levels were measured as per OGTT. For the measurement of serum insulin and TG, serum was collected 120 min after the mice were treated with tryptamine.

[2] = Insulin tolerance test (ITT) in mice; format: in vivo, mouse; settings: for insulin sensitivity in control mice (ITT): control mice without tryptamine, inhibitor alone; for tryptamine-induced insulin resistance (ITT): tryptamine (10 mg/kg)-treated mice plus inhibitor i.p. (U0126 20 mg/kg, PD98059 10 mg/kg, EPPTB 10 mg/kg); for insulin sensitivity (ITT): normal mice, substance given alone (tryptamine 0.4, 2, 10 mg/kg; phenethylamine 1, 2, 5 mg/kg i.p.)
Protocol: as §1

[3] = system: insulin-induced Akt phosphorylation; assay: Western blot of insulin-stimulated AKT phosphorylation in WAT, liver and skeletal muscle lysates from mice; format: in vivo, mouse; settings: insulin 1 U/kg; for inhibitory effects of tryptamine on insulin-stimulated AKT phosphorylation in tissues: tryptamine 10 mg/kg plus inhibitor (U0126 20 mg/kg or EPPTB 10 mg/kg), WAT and liver lysates; for insulin-induced Akt phosphorylation in major metabolic tissues: WAT, liver, skeletal muscle, tryptamine 10 mg/kg or phenethylamine 5 mg/kg i.p.
Protocol: (§2) Frozen tissues and harvested cells were lysed in RIPA buffer with a protease inhibitor cocktail. For western blotting, the cell lysates and tissue lysates were centrifuged at 15,000 rpm for 15 min at 4° C. The supernatant was mixed with 5× loading buffer and heated at 98° C. on a dry bath for 10 min. The target proteins were then detected in the samples as per manufacturer instructions. The blots were incubated with HRP-linked anti-rabbit IgG or anti-mouse IgG and reacted with enhanced chemiluminescence. The quantification of protein bands from western blots was analyzed using Image J.

ERK1/2 phosphorylation [4] = assay: Western blot of ERK activation in WAT, liver and skeletal muscle lysates from mice; format: in vivo, mouse; settings: for tryptamine-induced ERK phosphorylation in tissues: tryptamine 10 mg/kg plus inhibitor (U0126 20 mg/kg or EPPTB 10 mg/kg), WAT and liver lysates
Protocol: as §2

[5] = system: insulin-induced AKT phosphorylation; assay: Western blot of insulin signaling (AKT phosphorylation) in 3T3-L1 cells; format: cell-based; settings: insulin 20 nM; for inhibitory effects of tryptamine and phenethylamine on insulin-stimulated AKT phosphorylation / insulin-induced AKT phosphorylation: 3T3-L1 cells; for inhibitory effects of tryptamine and phenethylamine on insulin-stimulated AKT phosphorylation: tryptamine or phenethylamine 25 μM, inhibitor 20 μM; for insulin-induced AKT phosphorylation: precursors and metabolites at 100 μM; for insulin signaling: 3T3-L1 adipocytes, 25 μM
Protocol: (§3) For the glucose uptake assay, 3T3-L1 cells were serum- and glucose-starved for 3 hours and then incubated with glucose, FBS, insulin and tryptamine for 30 min as indicated. To assess the effect of tryptamine on insulin signaling, 3T3-L1 cells were pre-treated with or without tryptamine, ERK inhibitor or TAAR1 antagonist EPPTB, and then treated with insulin at the indicated concentration. The effect of IAA on insulin signaling was evaluated by treating 3T3-L1 cells with or without IAA followed by insulin for the indicated times. Tryptamine, U0126 and EPPTB were dissolved in DMSO at 100 mM as a stock solution. For cAMP measurements, 3T3-L1 cells were pre-treated with or without EPPTB for 60 min and then treated with tryptamine for the indicated times.
as §2

ERK1/2 phosphorylation [6] = assay: Western blot of ERK activation in 3T3-L1 cells; format: cell-based; settings: for ERK phosphorylation induced by tryptamine and phenethylamine: tryptamine or phenethylamine 25 μM, pre-treatment with inhibitor 20 μM; for ERK1/2 phosphorylation: 25 μM
Protocol: as §3, with “3T3-L1 adipocytes (ATCC CL-173) were cultured and maintained in DMEM with 10% (v/v) FBS. For the” for “For the”
as §2

[7] = mouse, in vivo, 15 min
Protocol: (§4) Tryptamine at a dosage of 5 mg/kg (dissolved in 0.5% CMC-Na) was orally administered to mice. After 15 min, mice were euthanized by isoflurane and sacrificed by cervical dislocation. Serum, liver, skeletal muscle and WAT were collected and stored at −80° C. until analysis. About 80 mg of biological tissues were extracted with a 20× volume of 70% methanol (m/v) and then homogenized with steel beads. The samples were then centrifuged at 14,000 rpm at 4° C. for 15 min. About 200 μL of the supernatant was transferred to new tubes for LC-MS analysis.

Serum TG level in mice = format: in vivo, mouse; settings: normal mice, i.p.
Protocol: as §1

[8] = Intravenous glucose tolerance test (IVGTT) in monkeys; format: in vivo, Macaca fascicularis; settings: normal monkeys, single dose 10 mg/kg via oral gavage
[9] = Serum insulin level in monkeys; format: in vivo, Macaca fascicularis; settings: normal monkeys, single dose 10 mg/kg via oral gavage
Protocol: The first crab-eating macaques (Macaca fascicularis) metabolomics study is performed with ethics approval (No. YMB1704) by Yunnan Yinmore Biotechnology company (Kunming, China). The diagnosis of diabetes for monkeys was based on published criteria. Specifically, age-matched (10-23 years old) monkeys were categorized as normal (Define as FBG<75 mg/dL and Hb1Ac<3.5%), pre-diabetes (FBG 80-130 mg/dL and Hb1Ac 4.0%-6.0%) and diabetes (FBG>130 mg/dL and Hb1Ac>6.0%) (n=26 for each group). Biological samples including serum and feces were collected and stored at −80° C. until analysis. The second crab-eating macaques (n=5) intervention study is performed with ethics approval (No. HZ2021047) by Huazhen Biosciences company (Guangzhou, China). Biochemical parameters including OGTT and serum insulin level were measured before and after tryptamine treatment. No crab-eating macaques were treated with anti-diabetic medication during these studies.
To understand the role of tryptamine and phenethylamine in the pathophysiology of insulin resistance, tryptamine and phenethylamine were administered to normal mice within the pathophysiological range detected in the fecal samples of T2D subjects. […]

3T3-L1 adipocytes = assay: Glucose uptake assay in 3T3-L1 cells; format: cell-based; settings: 5, 10 and 25 μM
Protocol: as §3, with “3T3-L1 adipocytes (ATCC CL-173) were cultured and maintained in DMEM with 10% (v/v) FBS. For the” for “For the”

[10] = system: insulin signaling-related proteins; assay: Phospho-proteomics study of mouse tissue; format: in vivo; settings: mice, insulin-sensitive tissues (WAT), tryptamine treatment
Protocol: Mice were fasted for 4 hours and orally administered with tryptamine or vehicle. The WAT tissues were collected for the phosphoproteomics study. Mice tissue samples used for the TMT-labeled phosphoproteomics study were prepared as previously reported. An Easy nLC system (Thermo Fisher Scientific) with an Acclaim PepMap RSLC column (50 μm×15 cm) was used to separate the TMT-labelled peptides. The mobile phase used in LC-MS-Orbitrap was A: water with 0.1% formic acid and B: 80% acetonitrile, 20% water with 0.1% formic acid. The elution gradient was set as 0-5 min in 0-6% buffer B, 5-45 min in 6-28% buffer B, 45-50 min in 28%-38% buffer B, 50-55 min 38-100% buffer B and maintained during […] in 100% buffer B. The obtained MS/MS spectra were processed by Proteome Discoverer (Thermo Fisher Scientific) and searched using MASCOT engine 2.6. All protein sequences were aligned to the Mus musculus database downloaded from UniProt (http://www.uniprot.org). The proteins with a fold change>1.2 or <0.8 and a p-value<0.05 were considered as differentially expressed proteins.

[11] = Tissue distribution of tryptamine; settings: mice, oral gavage of tryptamine 5 mg/kg, within 15 min
Protocol: as §4

[12] = antibiotics-treated mice colonized with R. gnavus ATCC 29149, EPPTB 10 mg/kg i.p.

For CCOc1cccc(NC(=O)c2ccc(N3CCCC3)c(C(F)(F)F)c2)c1 [EPPTB, N-(3-ethoxy-phenyl)-4-pyrrolidin-1-yl-3-trifluoromethyl-benzamide], the “R. gnavus-induced impaired glucose tolerance (OGTT)” value [1, 12] was “partially abrogated”, the “glucose tolerance in control mice (OGTT)” value [1] was “did not affect” and the “tryptamine-induced glucose intolerance (OGTT)” value [1] was “significantly reduced”. For the same compound, the “R. gnavus-induced lower insulin sensitivity (ITT)” value [2, 12] was “partially abrogated”, the “insulin sensitivity in control mice (ITT)” value [2] was “did not affect” and the “tryptamine-induced insulin resistance (ITT)” value [2] was “significantly reduced”. The “inhibitory effects of tryptamine on insulin-stimulated AKT phosphorylation in tissues” value [3] was “abolished the inhibitory effects”, the “tryptamine-induced ERK phosphorylation in tissues” value (ERK1/2 phosphorylation [4]) was “downregulated” and the “inhibitory effects of tryptamine and phenethylamine on insulin-stimulated AKT phosphorylation” value [5] was “reversed the inhibitory effects”. The “ERK phosphorylation induced by tryptamine and phenethylamine” value (ERK1/2 phosphorylation [6]) was “significantly downregulated”.
In the case of COc1cccc(-c2cc(=O)c3ccccc3o2)c1N [PD98059], the “glucose tolerance in control mice (OGTT)” value [1] is reported as “negligible effects”, the “tryptamine-induced glucose intolerance (OGTT)” value [1] is reported as “significantly improved” and the “insulin sensitivity in control mice (ITT)” value [2] is reported as “negligible effects”. For the same compound, the “tryptamine-induced insulin resistance (ITT)” value [2] was “significantly improved”.
In the case of N#CC(=C(/N)Sc1ccccc1N)/C(C#N)=C(\N)Sc1ccccc1N [U0126], the “glucose tolerance in control mice (OGTT)” value [1] is reported as “negligible effects”, the “tryptamine-induced glucose intolerance (OGTT)” value [1] is reported as “significantly improved” and the “insulin sensitivity in control mice (ITT)” value [2] is reported as “negligible effects”. The “tryptamine-induced insulin resistance (ITT)” value [2] was “significantly improved”, the “inhibitory effects of tryptamine on insulin-stimulated AKT phosphorylation in tissues” value [3] was “abolished the inhibitory effects” and the “tryptamine-induced ERK phosphorylation in tissues” value (ERK1/2 phosphorylation [4]) was “significantly downregulated”. For the same compound, the “inhibitory effects of tryptamine and phenethylamine on insulin-stimulated AKT phosphorylation” value [5] was “significantly suppressed the inhibitory effects” and the “ERK phosphorylation induced by tryptamine and phenethylamine” value (ERK1/2 phosphorylation [6]) was “blocked”.
In the case of O=C(O)Cc1c[nH]c2ccccc12 [indole-3-acetic acid], the “glucose tolerance (OGTT)” value [1] is reported as “did not impair”, the “insulin sensitivity (ITT)” value [2] is reported as “did not impair” and the “insulin-induced AKT phosphorylation” value [5] is reported as “did not alter”. For the same compound, the “IAA concentration relative to that of tryptamine in serum” value [7] was 40-100 fold.
With NCCc1ccccc1 [phenethylamine] the “glucose tolerance (OGTT)” value [1] was “remarkably inhibitory effects”, the “insulin sensitivity (ITT)” value [2] was “remarkably inhibitory effects” and the “insulin-induced Akt phosphorylation in major metabolic tissues” value [3] was “significantly suppressed”. For the same compound, the “serum TG levels” value (Serum TG level in mice) was “significant elevation”, the insulin signaling [5] was “inhibited insulin signaling in a time-dependent manner” and the ERK1/2 phosphorylation (ERK1/2 phosphorylation [6]) was “induced ERK1/2 phosphorylation in a time-dependent manner”.
For O=C(O)Cc1ccccc1 [phenylacetic acid], the “insulin-induced AKT phosphorylation” value [5] was “did not alter”.
With N[C@@H](Cc1ccccc1)C(=O)O [phenylalanine] the “insulin-induced AKT phosphorylation” value [5] was “did not alter”.
In the case of NCCc1c[nH]c2ccccc12 [tryptamine], the “glucose tolerance (OGTT)” value [1] is reported as “remarkably inhibitory effects”, the “insulin sensitivity (ITT)” value [2] is reported as “remarkably inhibitory effects” and the “insulin-induced Akt phosphorylation in major metabolic tissues” value [3] is reported as “significantly suppressed”. For the same compound, the “ERK1/2 phosphorylation in insulin-sensitive tissues” value (ERK1/2 phosphorylation [4]; tryptamine 10 mg/kg i.p., WAT, liver, skeletal muscle) was “upregulated”, the “serum TG levels” value (Serum TG level in mice) was “significant elevation” and the “blood glucose levels in the glucose challenge (IVGTT)” value [8] was “higher blood glucose levels”. The serum insulin levels [9] was “significant elevation”, the insulin signaling [5] was “inhibited insulin signaling in a time-dependent manner” and the ERK1/2 phosphorylation (ERK1/2 phosphorylation [6]) was “induced ERK1/2 phosphorylation in a time-dependent manner”. The basal glucose uptake (3T3-L1 adipocytes) was “inhibited basal glucose uptake in a dose-dependent manner”, the “insulin signaling-related phospho-proteins (HSL, ERK, SH3D5)” value [10] was “upregulated” and the “metabolite indole-3-acetic acid (IAA) levels in serum and insulin-sensitive tissues” value [11] was “significantly increased”. For the same compound, the “tryptamine levels in serum and insulin-sensitive tissues” value ([11]; serum, WAT, liver, skeletal muscle) was “significantly increased”.
With N[C@@H](Cc1c[nH]c2ccccc12)C(=O)O [tryptophan] the “insulin-induced AKT phosphorylation” value [5] was “did not alter”.
